Test results as given in US10441557B2, “Germicidal compositions comprising carboxylic acid mixture and use as topical disinfectants” (priority 2012, dated 2019).

Assay: Freeze-thaw stability of concentrates
Format: physicochemical
Protocol: In this example, concentrates according to the present invention were prepared comprising various surfactants and the effect of those surfactants on the freeze-thaw stability of the samples was determined. The concentrates were prepared for an intended dilution ratio of 1 part concentrate to 39 parts water. Each formulation tested comprised 9.2 wt. % formic acid, 9.4 wt. % lactic acid, 23.2 wt. % sodium α-olefin sulfonate (SAOS), and 21 wt. % of the indicated surfactant, with water comprising the balance.
The samples of each formulation were placed in bottles filled to 1.5 inches from the top of the bottles. The bottles containing the samples were placed in a freezer for one day, and removed from the freezer and thawed the subsequent day. The homogeneity of each sample upon thawing was noted. A formulation was considered acceptable if a homogeneous solution was observed upon thawing.

Cocamidopropylbetaine
Physical Stability After 1 Freeze-Thaw Cycle: Non-homogeneous
